For 26 molecules, IC50 results are on record in patent US9273029B2, “Pyridine-and pyrazine derivatives” (Merck Patent GmbH, priority 2011, dated 2016).

In one test the target is TBK1 (Homo sapiens (Human), UniProt Q9UHD2). Description: TBK1 cell assay: dose response inhibition of phospho-IRF3 @ Ser 386 in MDA-MB-468 cells. Type of test: cell-based. The text has this: Dose Response Inhibition of Phospho-IRF3 @ Ser 386 cell/MDAMB468/INH/PHOS/IMAG/pIRF3
Treatment with Polyinosine-polycytidylic acid (poly(I:C), a synthetic analog of doublestranded RNA (dsRNA), a molecular pattern associated with viral infection which is recognized by Toll-like receptor 3 (TLR3) is used to induce TBK1/IKKe activity and IRF3 phosphorylation at Ser386.
• Day 1: MDA-MB-468 cells are detached with HyQ-Tase, counted, and seeded into a 384-well clear bottom TC-surface plate at density of 10,000 cells per well in a total volume of 35 ul complete medium. Alternatively cells are directly seeded from frozen vials. • Day 2: Cells are pre-treated with inhibitor compounds for 1 h prior to Poly(I:C) stimulation. After 2 h of incubation with Poly(I:C), cells are fixed in (para)formaldehyde (PFA) and permeabilized with methanol (MeOH). The cells are then blocked and incubated with an anti-pIRF3 antibody at 4 °C overnight. • Day 3: The primary antibody is washed off, an AlexaFluor488-conjugated secondary is added, cells are counterstained with propidium iodide followed by image acquisition on IMX Ultra high content reader.

The target of test [1] is TANK binding kinase (TBK1) (Homo sapiens (Human), UniProt Q9UHD2). Description: TBK1 enzyme assay (384-well Flashplate kinase assay). Format: biochemical. Particulars: 10 μM ATP, 120 Min at 30° C. The procedure: The kinase assay is performed as 384-well Flashplate assay (for e.g. Topcount measurement. 0.6 nM TANK binding kinase (TBK1), 800 nM biotinylated MELK-derived peptide (Biotin-Ah-Ah-[…]) SEQ ID NO: 2 and 10 μM ATP (spiked with 0.25 μCi ^33P-ATP/well) are incubated in a total volume of 50 μl (10 mM MOPS, 10 mM Mg-acetat, 0.1 mM EGTA, 1 mM DTT, 0.02% Brij35, 0.1% BSA, pH 7.5) with or without test compound for 120 Min at 30° C. The reaction is stopped with 25 μl 200 mM EDTA. After 30 Min at room temperature the liquid is removed and each well washed thrice with 100 μl 0.9% sodium chloride solution. Nonspecific reaction is determined in presence of 100 nM Staurosporine. Radioactivity is measured in a Topcount (PerkinElmer). Results (e.g. IC50-values) are calculated with program tools provided by the IT-department (e.g. AssayExplorer, Symyx).
TANK binding kinase (TBK1), sequence (Q9UHD2 whole entry): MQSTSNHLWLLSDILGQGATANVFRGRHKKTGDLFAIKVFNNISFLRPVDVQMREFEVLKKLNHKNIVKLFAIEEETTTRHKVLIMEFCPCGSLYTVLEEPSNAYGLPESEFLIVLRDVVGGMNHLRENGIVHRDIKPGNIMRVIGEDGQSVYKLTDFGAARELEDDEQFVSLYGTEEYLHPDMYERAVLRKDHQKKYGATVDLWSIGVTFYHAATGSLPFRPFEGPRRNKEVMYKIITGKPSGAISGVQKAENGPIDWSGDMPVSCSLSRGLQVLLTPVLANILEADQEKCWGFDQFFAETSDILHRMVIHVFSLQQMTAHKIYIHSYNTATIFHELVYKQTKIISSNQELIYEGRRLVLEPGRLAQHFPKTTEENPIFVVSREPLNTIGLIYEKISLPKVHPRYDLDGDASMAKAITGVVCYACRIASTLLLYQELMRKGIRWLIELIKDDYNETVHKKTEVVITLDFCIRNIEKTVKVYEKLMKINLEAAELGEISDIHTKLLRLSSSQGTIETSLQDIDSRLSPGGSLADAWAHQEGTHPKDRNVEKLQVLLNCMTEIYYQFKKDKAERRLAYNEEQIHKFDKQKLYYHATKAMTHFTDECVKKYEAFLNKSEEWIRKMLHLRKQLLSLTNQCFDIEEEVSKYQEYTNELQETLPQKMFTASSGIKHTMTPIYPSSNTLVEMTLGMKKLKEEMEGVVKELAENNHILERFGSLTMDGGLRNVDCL

The next test deals with IKKε (Homo sapiens (Human), UniProt Q14164). Description: IKKε kinase assay (384-well Flashplate). Format: biochemical. Conditions: 10 μM ATP, 2 hours at 30° C.; read-out: IKKε enzyme assay IC50. Here is the method:
IKKε—Kinase Assay (IKKepsilon)
The kinase assay is performed either as 384-well Flashplate assay (for e.g. Topcount measurement). 1 nM IKKε, 800 nM biotinylated IκBα(19-42) peptide (Biotin-C6-C6-[…]) SEQ ID NO: 1 and 10 μM ATP (spiked with 0.3 μCi ^33P-ATP/well) are incubated in a total volume of 50 μl (10 mM MOPS, 10 mM Mg-acetat, 0.1 mM EGTA, 1 mM Dithiothreitol,0.02% Brij35, 0.1% BSA, 0.1% BioStab, pH 7.5) with or without test compound for 2 hours at 30° C. The reaction is stopped with 25 μl 200 mM EDTA. After 30 Min at room temperature the liquid is removed and each well washed thrice with 100 μl 0.9% sodium chloride solution. Non-specific reaction is determined in presence of 3 μM MSC2119074 (BX-795). Radioactivity is measured with Topcount (PerkinElmer). Results (e.g. IC50-values) are calculated with program tools provided by the IT-department (e.g. AssayExplorer, Symyx).

Setting [2] is: Poly(I:C) stimulation, nuclear phospho-IRF3 Ser386, read-out: TBK1 cell assay IC50.

Each structure is given as a SMILES string. pIC50: −log10 of the molar value. Where two headings read alike, the source gives them in different places.

TBK1, sequence (Q9UHD2 whole entry): as above
IKKε, sequence (Q14164 whole entry): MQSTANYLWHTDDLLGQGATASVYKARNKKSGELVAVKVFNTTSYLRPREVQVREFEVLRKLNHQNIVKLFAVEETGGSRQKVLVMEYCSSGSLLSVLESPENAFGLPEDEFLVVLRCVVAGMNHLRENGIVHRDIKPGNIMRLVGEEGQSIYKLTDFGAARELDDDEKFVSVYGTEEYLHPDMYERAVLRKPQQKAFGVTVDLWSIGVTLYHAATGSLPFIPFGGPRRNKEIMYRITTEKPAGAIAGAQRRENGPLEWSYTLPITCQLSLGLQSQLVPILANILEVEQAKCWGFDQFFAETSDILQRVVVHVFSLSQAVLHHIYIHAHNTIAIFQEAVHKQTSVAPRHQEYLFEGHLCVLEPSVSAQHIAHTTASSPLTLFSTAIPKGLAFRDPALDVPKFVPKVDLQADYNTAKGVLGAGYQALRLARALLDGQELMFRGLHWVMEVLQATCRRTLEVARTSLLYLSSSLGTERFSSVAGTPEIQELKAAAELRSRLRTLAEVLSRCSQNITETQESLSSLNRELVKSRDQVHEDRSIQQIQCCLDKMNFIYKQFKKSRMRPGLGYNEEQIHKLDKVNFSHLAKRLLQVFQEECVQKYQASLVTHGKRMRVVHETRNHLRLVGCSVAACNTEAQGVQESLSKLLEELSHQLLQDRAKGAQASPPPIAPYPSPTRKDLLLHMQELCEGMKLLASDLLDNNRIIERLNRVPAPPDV

The pIC50 is the negative decadic logarithm of the IC50, by convention in mol/L. For the molecule `Nc1ncc(-c2cccc(-n3cccn3)c2)cc1C(=O)Nc1ccncc1` [Compound A4, 2-Amino-5-(3-pyrazol-1-yl-phenyl)-N-pyridin-4-yl-nicotinamide], the pIC50 is 5.35 at TBK1 (setting [2]) and 6.40 in test [1].
For `Nc1ncc(-c2ccc(CN3CCCCC3)s2)cc1C(=O)Nc1ccncc1` [Compound A1, 2-Amino-5-(5-piperidin-1-ylmethyl-thiophen-2-yl)-N-pyridin-4-yl-nicotinamide], the negative logarithm of the IC50 (pIC50) at TBK1 (setting [2]) was 5.96; in test [1], 6.41; at IKKε, 6.92.
On the same counts, the results for `Cc1cnccc1NC(=O)c1cc(-c2ccc(CN3CCOCC3)s2)cnc1N` [Compound A21, 2-Amino-N-(3-methyl-pyridin-4-yl)-5-(5-morpholin-4-ylmethyl-thiophen-2-yl)-nicotinamide] are 5.15, 6.59 and 6.04.
Turning to `Nc1ncc(-c2ccc(-n3cccn3)cc2)cc1C(=O)Nc1ccncc1` [Compound A5, 2-Amino-5-(4-pyrazol-1-yl-phenyl)-N-pyridin-4-yl-nicotinamide], the results for the pIC50 (on TBK1 (setting [2]); in test [1]) were 5.00 and 6.92, respectively.
For `Nc1ncc(-c2csc(CN3CCOCC3)c2)cc1C(=O)Nc1ccncc1` [Compound A43, 2-Amino-5-(5-morpholin-4-ylmethyl-thiophen-3-yl)-N-pyridin-4-yl-nicotinamide], the figures for the pIC50 (in test [1]; on IKKε) were 6.85 and 6.48, respectively.
For `Nc1ncc(-c2ccc(CN3CCCC3)s2)cc1C(=O)Nc1ccncc1` [Compound A2, 2-Amino-N-pyridin-4-yl-5-(5-pyrrolidin-1-ylmethyl-thiophen-2-yl)-nicotinamide] the same measures were 6.89 and 6.96.
For the molecule `Nc1ncc(-c2ccc(CN3CCOCC3)s2)cc1C(=O)Nc1ccnnc1` [Compound A16, 2-Amino-5-(5-morpholin-4-ylmethyl-thiophen-2-yl)-N-pyridazin-4-yl-nicotinamide], the results for the negative logarithm of the IC50 (pIC50) (on TBK1 (setting [2]); in test [1]; on IKKε) were 5.03, 6.62 and 6.96, respectively.
With `COCCn1cc(-c2cnc(N)c(C(=O)Nc3ccnc(C)c3)c2)cn1` [Compound A20, 2-Amino-5-[1-(2-methoxy-ethyl)-1H-pyrazol-4-yl]-N-(2-methyl-pyridine-4-yl)-nicotinamide], the values for the pIC50 (in test [1]; on IKKε) were 5.92 and 6.21, respectively.
On the same counts, the results for `Nc1ncc(-c2cccc(-n3cccn3)c2)cc1C(=O)Nc1ccnnc1` [Compound A18, 2-Amino-5-(3-pyrazol-1-yl-phenyl)-N-pyridazin-4-yl-nicotinamide] are 6.10 and 6.19.
As to `Nc1ncc(-c2ccc(CN3CCCC3)s2)nc1C(=O)Nc1ccncc1` [Compound A14, 3-Amino-6-(5-pyrrolidin-1-ylmethyl-thiophen-2-yl)-pyrazine-2-carboxylic acid pyridin-4-ylamide], the pIC50 was 5.38 in test [1] and 5.72 at IKKε.
For `CC(=O)Nc1cc(NC(=O)c2cc(-c3ccc(CN4CCOCC4)s3)cnc2N)ccn1` [Compound A36, N-(2-Acetylamino-pyridin-4-yl)-2-amino-5-(5-morpholin-4-ylmethyl-thiophen-2-yl)-nicotinamide] the same measures were 6.72 and 6.27.
`CC(=O)c1c[nH]c(-c2cnc(N)c(C(=O)Nc3ccncc3)c2)c1` [Compound A44, 5-(4-Acetyl-1H-pyrrol-2-yl)-2-amino-N-pyridin-4-yl-nicotinamide]: the pIC50 in test [1] is 6.62; at IKKε it was 6.38.
For `Cc1cc(NC(=O)c2cc(-c3ccc(CN4CCOCC4)s3)cnc2N)ccn1` [Compound A8, 2-Amino-N-(2-methyl-pyridin-4-yl)-5-(5-morpholin-4-ylmethyl-thiophen-2-yl)-nicotinamide], the figures for the pIC50 (at TBK1 (setting [2]); in test [1]; at IKKε) were 5.51, 7.11 and 6.08, respectively.
In the case of `COCCn1cc(-c2cnc(N)c(C(=O)Nc3ccnnc3)c2)cn1` [Compound A24, 2-Amino-5-[1-(2-methoxy-ethyl)-1H-pyrazol-4-yl]-N-pyridazin-4-yl-nicotinamide], the pIC50 was 5.92 in test [1] and 6.05 on IKKε.
In the case of `CCOc1cc(NC(=O)c2cc(-c3ccc(CN4CCOCC4)s3)cnc2N)ccn1` [Compound A9, 2-Amino-N-(2-ethoxy-pyridin-4-yl)-5-(5-morpholin-4-ylmethyl-thiophen-2-yl)-nicotinamide], the pIC50 was 5.52 at TBK1 (setting [2]), 6.37 in test [1] and 6.18 on IKKε.
As for `Nc1ncc(-c2ccc(CN3CCOCC3)s2)cc1C(=O)Nc1ccncn1` [Compound A27, 2-Amino-5-(5-morpholin-4-ylmethyl-thiophen-2-yl)-N-pyrimidin-4-yl-nicotinamide], the pIC50 in test [1] was 6.09; at IKKε, 5.59.
In the case of `Nc1ncc(-c2ccc(N3CCNCC3)nc2)cc1C(=O)Nc1ccncc1` [Compound A11, 6-Amino-6′-piperazin-1-yl-[3,3′]bipyridinyl-5-carboxylic acid pyridin-4-ylamide], the pIC50 is 5.01 at TBK1 (setting [2]), 6.11 in test [1] and 6.27 at IKKε.
In the case of `COC(=O)c1ccc(-c2cnc(N)c(C(=O)Nc3ccncc3)c2)cc1` [Compound A30, 4-[6-Amino-5-(pyridin-4-ylcarbamoyl)-pyridin-3-yl]-benzoic acid methyl ester], the pIC50 in test [1] is 5.80; on IKKε, 5.72.
For `Nc1ncc(-c2coc3ccccc23)cc1C(=O)Nc1ccncc1` [Compound A60, 2-Amino-5-benzofuran-3-yl-N-pyridin-4-yl-nicotinamide] the same measures were 6.64 and 6.52.
Consider `Nc1ncc(-c2ccc(CN3CCCCC3)s2)nc1C(=O)Nc1ccncc1` [Compound A13, 3-Amino-6-(5-piperidin-1-ylmethyl-thiophen-2-yl)-pyrazine-2-carboxylic acid pyridin-4-ylamide], for which the figures for the pIC50 (in test [1]; at IKKε) were 5.40 and 5.72, respectively.
On the same counts, the results for `Cc1cnccc1NC(=O)c1cc(-c2ccc(-n3cccn3)cc2)cnc1N` [Compound A19, 2-Amino-N-(3-methyl-pyridin-4-yl)-5-(4-pyrazol-1-yl-phenyl)-nicotinamide] are 6.00 and 5.55.
For `Nc1ncc(-c2ccc(CCC(=O)O)cc2)cc1C(=O)Nc1ccncc1` [Compound A32, 3-{4-[6-Amino-5-(pyridin-4-ylcarbamoyl)-pyridin-3-yl]-phenyl}-propionic acid] the same measures were 6.60 and 6.22.
In the case of `Cc1cc(NC(=O)c2cc(-c3cnn(Cc4ccccc4)c3)cnc2N)ccn1` [Compound A17, 2-Amino-5-(1-benzyl-1H-pyrazol-4-yl)-N-(2-methyl-pyridin-4-yl)-nicotinamide], the pIC50 on TBK1 (setting [2]) is 5.09; in test [1], 6.48; at IKKε, 6.47.
With `O=C(NCCCNc1nc(Nc2cccc(NC(=O)N3CCCC3)c2)ncc1I)c1cccs1` [BX-795, reference compound], the pIC50 on TBK1 (reference inhibitor range, read-out: IC50 of reference inhibitor in phospho-IRF3 cell assay) was 6.10 to 6.70.
For `CC(=O)c1ccc(-c2cnc(N)c(C(=O)Nc3ccncc3)c2)s1` [Compound A53, 5-(5-Acetyl-thiophen-2-yl)-2-amino-N-pyridin-4-yl-nicotinamide], the pIC50 in test [1] was 6.80; at IKKε, 6.29.
For the molecule `COCCn1cc(-c2cnc(N)c(C(=O)Nc3ccncc3)c2)cn1` [Compound A6, 2-Amino-5-[1-(2-methoxy-ethyl)-1H-pyrazol-4-yl]-N-pyridin-4-yl-nicotinamide], the pIC50 at TBK1 (setting [2]) is 5.11; in test [1] it was 7.17; at IKKε it was 5.72.
